In PubChem BioAssay (NCI):
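Values below derive from 48-hour exposures of cells grown in 96-well plates, with endpoints linearly interpolated between the two concentrations bracketing the appropriate inhibition level. GI50 is the concentration that inhibits growth by half. TGI: total growth inhibition.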

Tests used:
Experiment in all cases: NCI-60 cell line screen, 48 h
CCRF-CEM leukemia = system: CCRF-CEM leukemia
COLO 205 colon = system: COLO 205 colon
HL-60(TB) leukemia = system: HL-60(TB) leukemia
IGROV1 ovarian = system: IGROV1 ovarian
SK-OV-3 ovarian = system: SK-OV-3 ovarian
UO-31 renal = system: UO-31 renal
HS 578T breast = system: HS 578T breast
NCI-H226 lung = system: NCI-H226 lung
NCI/ADR-RES ovarian = system: NCI/ADR-RES ovarian
UACC-257 melanoma = system: UACC-257 melanoma

Row | Compound | GI50 (CCRF-CEM leukemia) | TGI (CCRF-CEM leukemia) | GI50 (COLO 205 colon) | TGI (COLO 205 colon) | GI50 (HL-60(TB) leukemia) | TGI (HL-60(TB) leukemia) | GI50 (IGROV1 ovarian) | TGI (IGROV1 ovarian) | GI50 (SK-OV-3 ovarian) | TGI (SK-OV-3 ovarian) | GI50 (UO-31 renal) | TGI (UO-31 renal) | GI50 (HS 578T breast) | TGI (HS 578T breast) | GI50 (NCI-H226 lung) | TGI (NCI-H226 lung) | GI50 (NCI/ADR-RES ovarian) | TGI (NCI/ADR-RES ovarian) | TGI (UACC-257 melanoma) | GI50 (UACC-257 melanoma)
1 | N#C/C(=C/N1CCN(C(=O)c2ccco2)C1=S)C(=O)c1ccccc1 | 41.9 µM | > 100 µM | 23.2 µM | > 100 µM | 31.5 µM | 91.5 µM | 19.4 µM | 70.7 µM | 37.4 µM | > 100 µM | 10.2 µM | 32.5 µM | – | – | – | – | – | – | – | –
2 | Cc1ccc(S(=O)(=O)NCCNc2nccc(-c3c(-c4ccc(F)cc4)nc4sccn34)n2)cc1 | – | – | – | – | – | – | 3.09 µM | > 100 µM | 12.4 µM | 40.3 µM | 2.38 µM | > 100 µM | 7.7 µM | 75.5 µM | 5.14 µM | 97.3 µM | 4.83 µM | > 100 µM | – | –
3 | CC1(C)O/C(=C\c2ccccc2)C(=O)/C(=C/c2ccccc2)O1 | – | 44.4 µM | – | > 100 µM | – | 29.4 µM | – | > 100 µM | – | > 100 µM | – | > 100 µM | – | – | – | 96.3 µM | – | – | 71.7 µM | –
4 | COc1ccc2c(O)cc3c(c2c1)[C@H](CCl)CN3C(=O)c1cc2cc(NC(=O)CCN3CCOCC3)ccc2[se]1 | < 0.001 µM | – | < 0.001 µM | > 10 µM | 0.00142 µM | > 10 µM | < 0.001 µM | 1.36 µM | < 0.001 µM | – | < 0.001 µM | < 0.001 µM | – | – | < 0.001 µM | 0.00163 µM | < 0.001 µM | – | 0.00319 µM | < 0.001 µM
5 | CC1=NN(C(=O)CC(=O)N(C(=O)c2ccccc2Cl)c2ccc(C)cc2)C(=O)C1N=Nc1ccc([N+](=O)[O-])cc1 (stereo not drawn) | – | > 70.7 µM | – | > 58 µM | – | > 68.8 µM | – | > 100 µM | – | 69.6 µM | – | > 93.6 µM | – | – | – | > 100 µM | – | – | > 100 µM | –
6 | C[n+]1cc(C(O)c2ccc3c(c2)OCO3)c2ccccc2c1 (stereo not drawn) | – | > 100 µM | – | > 100 µM | – | – | – | > 100 µM | – | > 100 µM | – | 92.5 µM | – | – | – | > 100 µM | – | – | 66.5 µM | –
7 | C=C1C[C@]23CCC4C(C)(C)C(=O)CC[C@]4(C)C2C[C@H]1C(O)C3=O (stereo partly drawn) | – | > 75 µM | – | > 75 µM | – | > 75 µM | – | > 75 µM | – | > 75 µM | – | > 75 µM | – | – | – | > 75 µM | – | – | > 75 µM | –
8 | N.N.N.N.[Cl-].[Co+3].[N-]=[N+]=[N-].[N-]=[N+]=[N-] | 91.6 µM | > 100 µM | > 100 µM | > 100 µM | 74.3 µM | > 100 µM | > 100 µM | > 100 µM | > 100 µM | > 100 µM | 41.3 µM | > 100 µM | – | – | – | – | – | – | > 100 µM | > 100 µM
9 | CCCCOC(=O)NC(=O)c1cn(CCCOC(=O)NCCCCCCNC(=O)OCCCn2cc(C(=O)NC(=O)OCCCC)c(=O)[nH]c2=O)c(=O)[nH]c1=O | – | – | – | > 100 µM | – | > 100 µM | – | > 100 µM | – | > 100 µM | – | > 100 µM | – | – | – | – | – | – | > 100 µM | –
10 | CN(C)C(=S)/N=c1\ss/c(=N\C(=S)N(C)C)n1-c1ccc(Cl)c(Cl)c1 | – | > 100 µM | – | > 100 µM | – | > 100 µM | – | > 100 µM | – | > 100 µM | – | > 100 µM | – | – | – | > 100 µM | – | – | > 100 µM | –
11 | COc1ccc(C2c3cc(OC)c(OC)cc3C(Cc3ccc([N+](=O)[O-])cc3)C2c2ccc([N+](=O)[O-])cc2)cc1OC (stereo not drawn) | – | > 100 µM | – | > 100 µM | – | > 100 µM | – | > 100 µM | – | – | – | > 100 µM | – | – | – | > 100 µM | – | – | > 100 µM | –
12 | COC(=O)OCC1OC(N2C(=O)NC(=O)C(Br)C2N=[N+]=[N-])CC1OC(=O)OC (stereo not drawn) | – | > 100 µM | – | > 100 µM | – | – | – | > 100 µM | – | > 100 µM | – | > 100 µM | – | – | – | > 100 µM | – | – | > 100 µM | –
13 | O=c1[nH]c2cc(Cl)ccc2nc1/C(=N\O)C(O)c1ccc(Cl)cc1Cl (stereo not drawn) | – | > 100 µM | – | > 100 µM | – | > 100 µM | – | > 100 µM | – | > 100 µM | – | > 100 µM | – | – | – | > 100 µM | – | – | > 100 µM | –
14 | COc1cc(C)c2c(c1C)OC(=O)c1c(C)c(Cl)c(O)c(C=O)c1O2 | – | 47.3 µM | – | 76.7 µM | – | 22 µM | – | 72.7 µM | – | 65 µM | – | 76 µM | – | – | – | 87.6 µM | – | – | 61.5 µM | –
15 | CN[C@@H](C)[C@H](NC)c1ccccc1 | – | > 100 µM | – | > 100 µM | – | > 100 µM | – | > 100 µM | – | > 100 µM | – | > 100 µM | – | – | – | > 100 µM | – | – | > 100 µM | –
16 | Nc1ccn(C2(CO)C=C(CO)C(O)C2O)c(=O)n1 (stereo not drawn) | – | – | – | > 25.8 µM | – | > 25.8 µM | – | > 25.8 µM | – | > 25.8 µM | – | > 25.8 µM | – | – | – | > 25.8 µM | – | – | > 25.8 µM | –
17 | Cc1cc(C2CC(O)C(CO)O2)cc2c(=O)[nH]c(N)nc12 (stereo not drawn) | > 100 µM | > 100 µM | > 100 µM | > 100 µM | – | – | 71 µM | > 100 µM | > 100 µM | > 100 µM | > 100 µM | > 100 µM | > 100 µM | > 100 µM | > 100 µM | > 100 µM | > 100 µM | > 100 µM | > 100 µM | > 100 µM
18 | O=C1[C@H]2ON(c3ccccc3)C(c3ccc(Cl)cc3)[C@H]2C(=O)N1c1ccc(Cc2ccc(N3C(=O)[C@@H]4ON(c5ccccc5)C(c5ccc(Cl)cc5)[C@@H]4C3=O)cc2)cc1 (stereo partly drawn) | – | > 100 µM | – | > 100 µM | – | > 100 µM | – | > 100 µM | – | > 100 µM | – | > 100 µM | – | – | – | > 100 µM | – | – | > 100 µM | –
19 | Oc1cc(C2OCCCO2)cc(O)c1O | – | > 100 µM | – | > 100 µM | – | > 100 µM | – | > 100 µM | – | > 100 µM | – | > 100 µM | – | – | – | > 100 µM | – | – | > 100 µM | –
20 | COc1cccc(-n2c3nc(=O)n(C)c(=O)c-3nc3ccccc32)c1 | – | 79.1 µM | – | 13.1 µM | – | 28.2 µM | – | 59.6 µM | – | > 100 µM | – | > 100 µM | – | – | – | 55.6 µM | – | – | 33.8 µM | –
21 | Cc1cc(C)c(C2[C@H]3C(=O)N(c4ccc(Cc5ccc(N6C(=O)[C@@H]7ON(c8ccccc8)C(c8c(C)cc(C)cc8C)[C@@H]7C6=O)cc5)cc4)C(=O)[C@H]3ON2c2ccccc2)c(C)c1 (stereo partly drawn) | – | > 100 µM | – | > 100 µM | – | > 100 µM | – | > 100 µM | – | > 100 µM | – | > 100 µM | – | – | – | > 100 µM | – | – | > 100 µM | –
